The target in the test is T1, F508del (Homo sapiens, UniProt P13569, DEL508-508).
T1 construct: expressed in transfected cells
In words: Protocol 2: FRET membrane potential optical assay (VIPR), identification of correction compounds. The test is classed as cell-based. The method, boiled down: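 NIH3T3 mouse fibroblasts stably expressing F508del-CFTR incubated with compound 16 h at 37 °C in serum-free medium, then loaded with CC2-DMPE/DiSBAC2(3) FRET dyes. Channel activated with 10 μM forskolin plus 20 μM genistein in Cl⁻-free (gluconate) bath; depolarisation from Cl⁻ efflux read on VIPR II.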

The mark [1] stands for this setting: F508del CFTR modulator activity, compounds of Table 1, read-out: EC30.
Setting [2] is: Table 3, compounds of Table 1 as modulators of CFTR activity, protocol not stated.

SMILES strings stand for the structures. Read-outs that look alike come from different tables or passages of the source.

T1 sequence (P13569 with tags, fused parts or gaps DEL508-508): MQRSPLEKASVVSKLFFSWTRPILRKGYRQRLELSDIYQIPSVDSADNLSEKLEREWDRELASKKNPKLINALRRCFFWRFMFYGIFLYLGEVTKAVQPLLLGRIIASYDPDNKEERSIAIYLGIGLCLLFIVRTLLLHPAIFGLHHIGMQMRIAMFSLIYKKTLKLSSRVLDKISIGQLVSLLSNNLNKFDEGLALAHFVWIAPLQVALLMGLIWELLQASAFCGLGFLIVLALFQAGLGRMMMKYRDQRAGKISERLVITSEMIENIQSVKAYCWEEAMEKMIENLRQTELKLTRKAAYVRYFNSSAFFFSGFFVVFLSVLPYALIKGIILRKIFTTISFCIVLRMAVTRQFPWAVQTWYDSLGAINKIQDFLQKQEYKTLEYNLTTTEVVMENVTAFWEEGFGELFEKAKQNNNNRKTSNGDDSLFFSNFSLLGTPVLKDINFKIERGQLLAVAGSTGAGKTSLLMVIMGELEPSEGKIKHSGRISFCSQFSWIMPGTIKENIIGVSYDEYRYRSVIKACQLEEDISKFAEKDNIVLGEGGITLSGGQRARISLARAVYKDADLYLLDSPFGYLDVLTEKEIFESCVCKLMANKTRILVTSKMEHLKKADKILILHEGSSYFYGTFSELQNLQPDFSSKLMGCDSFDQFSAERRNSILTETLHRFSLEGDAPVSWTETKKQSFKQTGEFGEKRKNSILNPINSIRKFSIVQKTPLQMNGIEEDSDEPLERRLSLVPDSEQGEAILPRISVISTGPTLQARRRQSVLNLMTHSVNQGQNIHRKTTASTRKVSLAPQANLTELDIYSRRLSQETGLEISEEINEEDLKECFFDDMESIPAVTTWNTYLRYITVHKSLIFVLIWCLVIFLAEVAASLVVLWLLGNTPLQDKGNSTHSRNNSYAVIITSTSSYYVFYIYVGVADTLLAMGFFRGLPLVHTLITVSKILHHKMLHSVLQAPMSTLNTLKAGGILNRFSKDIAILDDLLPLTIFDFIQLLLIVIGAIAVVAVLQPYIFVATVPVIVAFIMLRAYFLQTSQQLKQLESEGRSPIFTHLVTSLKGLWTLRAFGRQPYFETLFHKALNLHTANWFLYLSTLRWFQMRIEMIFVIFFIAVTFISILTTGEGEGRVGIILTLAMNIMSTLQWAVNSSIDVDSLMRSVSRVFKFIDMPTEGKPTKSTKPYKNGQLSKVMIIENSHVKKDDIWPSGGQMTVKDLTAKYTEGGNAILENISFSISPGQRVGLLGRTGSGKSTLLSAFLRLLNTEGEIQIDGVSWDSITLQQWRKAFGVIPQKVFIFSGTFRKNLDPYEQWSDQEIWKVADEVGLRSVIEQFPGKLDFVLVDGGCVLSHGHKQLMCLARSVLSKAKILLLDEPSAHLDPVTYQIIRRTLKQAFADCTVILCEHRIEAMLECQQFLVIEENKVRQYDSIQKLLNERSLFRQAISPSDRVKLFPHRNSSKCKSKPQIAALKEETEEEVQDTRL

In general, EC30 refers to the concentration needed for an effect of 30%. In the case of `CC1CN(c2ncccc2C(=O)NS(=O)(=O)c2cccc(OCC3CCOC3)n2)C(C)(C)C1` (stereo not drawn) [Compound 2396, N—[[6-(tetrahydrofuran-3-ylmethoxy)-2-pyridyl]sulfonyl]-2-(2,2,4-trimethylpyrrolidin-1-yl)pyridine-3-carboxamide], the 30% effect concentration (EC30) under setting [1] is 3000 to 10000 nM.
With `Cc1cc(-c2nc(C(C)(C)C)ccc2C(=O)NS(=O)(=O)c2cccc(N)c2)ccc1F` [Compound 177, N-(3-aminophenyl)sulfonyl-6-tert-butyl-2-(4-fluoro-3-methyl-phenyl)pyridine-3-carboxamide], the 30% effect concentration (EC30) result under setting [2] was “++ (“++” means between 3 uM and 10 uM)”.
`CC1CN(c2ncccc2C(=O)NS(=O)(=O)c2cccc(N3CCC(F)(F)C3)n2)C(C)(C)C1` (stereo not drawn) [Compound 2166, N—[[6-(3,3-difluoropyrrolidin-1-yl)-2-pyridyl]sulfonyl]-2-(2,2,4-trimethylpyrrolidin-1-yl)pyridine-3-carboxamide]: the EC30 under setting [1] lay within 3000 to 10000 nM.
Consider `CC1CN(c2ncccc2C(=O)NS(=O)(=O)c2cccc(Oc3cccc(F)c3)n2)C(C)(C)C1` (stereo not drawn) [Compound 2332, N—[[6-(3-fluorophenoxy)-2-pyridyl]sulfonyl]-2-(2,2,4-trimethylpyrrolidin-1-yl)pyridine-3-carboxamide], for which, under setting [1], the EC30 was below 3000 nM.
With `Cn1ccc2cccc(Cn3nc(C(C)(C)C)cc3C(=O)NS(=O)(=O)c3cccc(N)c3)c21` [Compound 755, N-(3-aminophenyl)sulfonyl-5-tert-butyl-2-[(1-methylindol-7-yl)methyl]pyrazole-3-carboxamide], the concentration for an effect of 30% (EC30) entry under setting [2] was “++ (“++” means between 3 uM and 10 uM)”.
On to `CC1CN(c2ncccc2C(=O)NS(=O)(=O)c2cccc(OCCc3cccc(F)c3)n2)C(C)(C)C1` (stereo not drawn) [Compound 2740], for which the EC30 under setting [1] is below 3000 nM.
Same read-out and setting: the value for `CCOc1ccc(F)c(-c2ccc(C(=O)NS(=O)(=O)c3ccc[nH]c3=O)c(N3C[C@@H](C)CC3(C)C)n2)c1` [Compound 2138, 6-(5-ethoxy-2-fluoro-phenyl)-N-[(2-oxo-1H-pyridin-3-yl)sulfonyl]-2-[(4S)-2,2,4-trimethylpyrrolidin-1-yl]pyridine-3-carboxamide] was below 3000 nM.
In the case of `CCCOc1cc(-c2ccc(C(=O)NS(=O)(=O)c3cccc(N)n3)c(Oc3c(C)cc(C)cc3C)n2)ccc1Cl` [Compound 535, N-[(6-amino-2-pyridyl)sulfonyl]-6-(4-chloro-3-propoxy-phenyl)-2-(2,4,6-trimethylphenoxy)pyridine-3-carboxamide], under setting [2], the EC30 result is reported as “+++ (“+++” means <3 uM)”.
For `COC(=O)c1ccc(Oc2cccc(S(=O)(=O)NC(=O)c3cccnc3N3CC(C)CC3(C)C)n2)cc1` (stereo not drawn) [Compound 2728], the EC30 under setting [1] was below 3000 nM.
With `Cc1cc(C)c(Cn2nc(C(C)(C)C)cc2C(=O)NS(=O)(=O)c2cccc3[nH]ccc23)c(C)c1` [Compound 180, 5-tert-butyl-N-(1H-indol-4-ylsulfonyl)-2-[(2,4,6-trimethylphenyl)methyl]pyrazole-3-carboxamide], the EC30 entry under setting [2] is given as “+++ (“+++” means <3 uM)”.
For the compound `CC1CN(c2ncccc2C(=O)NS(=O)(=O)c2cccc(NCc3ccco3)n2)C(C)(C)C1` (stereo not drawn) [Compound 2597, N—[[6-(2-furylmethylamino)-2-pyridyl]sulfonyl]-2-(2,2,4-trimethylpyrrolidin-1-yl)pyridine-3-carboxamide], under setting [1], the EC30 lay in the range of 3000 to 10000 nM.
Still for that read-out and setting: the value for `Cc1cccc(COc2cccc(S(=O)(=O)NC(=O)c3cccnc3N3CC(C)CC3(C)C)n2)n1` (stereo not drawn) [Compound 2294, N—[[6-[(6-methyl-2-pyridyl)methoxy]-2-pyridyl]sulfonyl]-2-(2,2,4-trimethylpyrrolidin-1-yl)pyridine-3-carboxamide] was 3000 to 10000 nM.
Consider `Cc1ccc(-c2nc(C(C)(C)C)ccc2C(=O)NS(=O)(=O)c2ccccc2)cc1` [Compound 74, N-(benzenesulfonyl)-6-tert-butyl-2-(p-tolyl)pyridine-3-carboxamide], for which, under setting [2], the EC30 result is reported as “+++ (“+++” means <3 uM)”.
As for `Cc1cc(C)c(Oc2nc(-c3cccc(CC#N)c3)ccc2C(=O)NS(=O)(=O)c2cccc(N)n2)c(C)c1` [Compound 388, N-[(6-amino-2-pyridyl)sulfonyl]-6-[3-(cyanomethyl)phenyl]-2-(2,4,6-trimethylphenoxy)pyridine-3-carboxamide], the concentration for an effect of 30% (EC30) entry under setting [2] is “++ (“++” means between 3 uM and 10 uM)”.
In the case of `CC1CN(c2ncc(-c3cccc(Cl)c3)cc2C(=O)NS(=O)(=O)c2cccc(N)n2)C(C)(C)C1` (stereo not drawn) [Compound 2429, N-[(6-amino-2-pyridyl)sulfonyl]-5-(3-chlorophenyl)-2-(2,2,4-trimethylpyrrolidin-1-yl)pyridine-3-carboxamide], under setting [1], the EC30 was below 3000 nM.
Same read-out and setting: the value for `CC1CN(c2ncccc2C(=O)NS(=O)(=O)c2cccc(N3CCOCC3)n2)C(C)(C)C1` (stereo not drawn) [Compound 2464, N-[(6-morpholino-2-pyridyl)sulfonyl]-2-(2,2,4-trimethylpyrrolidin-1-yl)pyridine-3-carboxamide] was 3000 to 10000 nM.
On the same count and under the same terms, then `CC1CN(c2ncccc2C(=O)NS(=O)(=O)c2cccc(OCc3c(Cl)cccc3Cl)n2)C(C)(C)C1` (stereo not drawn) [Compound 2390, N—[[6-[(2,6-dichlorophenyl)methoxy]-2-pyridyl]sulfonyl]-2-(2,2,4-trimethylpyrrolidin-1-yl)pyridine-3-carboxamide], with below 3000 nM.
Regarding `Cc1cccc(C)c1Cn1nc(-c2cccc(OC(C)(C)C)c2)cc1C(=O)NS(=O)(=O)c1ccccc1` [Compound 744, N-(benzenesulfonyl)-5-(3-tert-butoxyphenyl)-2-[(2,6-dimethylphenyl)methyl]pyrazole-3-carboxamide], the EC30 entry under setting [2] is reported as “+++ (“+++” means <3 uM)”.
On to `Nc1cccc(S(=O)(=O)NC(=O)c2cccnc2NC2CCCCC2C2CCCCC2)n1` (stereo not drawn) [Compound 2599, N-[(6-amino-2-pyridyl)sulfonyl]-2-[(2-cyclohexylcyclohexyl)amino]pyridine-3-carboxamide], for which, under setting [1], the EC30 lay within 3000 to 10000 nM.
For the compound `COc1ccccc1CCn1nc(C(C)(C)C)cc1C(=O)NS(=O)(=O)c1ccccc1` [Compound 157, N-(benzenesulfonyl)-5-tert-butyl-2-[2-(2-methoxyphenyl)ethyl]pyrazole-3-carboxamide], under setting [2], the concentration for an effect of 30% (EC30) entry was “++ (“++” means between 3 uM and 10 uM)”.
As for `Cc1cc(C)c(Cn2c(C(=O)NS(=O)(=O)c3ccccc3)cc3cccc(C)c32)c(C)c1` [Compound 354, N-(benzenesulfonyl)-7-methyl-1-[(2,4,6-trimethylphenyl)methyl]indole-2-carboxamide], the 30% effect concentration (EC30) entry under setting [2] is listed as “+++ (“+++” means <3 uM)”.
For the compound `CC1CN(c2ncccc2C(=O)NS(=O)(=O)c2cccc(OC3CCOc4ccccc43)n2)C(C)(C)C1` (stereo not drawn) [Compound 2737], the EC30 under setting [1] is below 3000 nM.
Same read-out and setting: then `CC(C)COc1cc(F)cc(-c2ccc(C(=O)NS(=O)(=O)N3CC(N)CC(F)(F)C3)c(N3C[C@@H](C)CC3(C)C)n2)c1` (stereo partly drawn) [Compound 2209, N-[(5-amino-3,3-difluoro-1-piperidyl)sulfonyl]-6-(3-fluoro-5-isobutoxy-phenyl)-2-[(4S)-2,2,4-trimethylpyrrolidin-1-yl]pyridine-3-carboxamide], with below 3000 nM.
Regarding `Cc1ccc(Oc2nc(-c3cnn(CC(C)C)c3)ccc2C(=O)NS(=O)(=O)c2cccc(N)n2)c(C)c1` [Compound 381, N-[(6-amino-2-pyridyl)sulfonyl]-2-(2,4-dimethylphenoxy)-6-(1-isobutylpyrazol-4-yl)pyridine-3-carboxamide], the concentration for an effect of 30% (EC30) result under setting [2] is “++ (“++” means between 3 uM and 10 uM)”.
